Measured values from patent US7632843B2, “Treatment of psychostimulant addiction” (priority 2002, dated 2009).
Read-outs that look alike come from different tables or passages of the source.

Assays:
male Wistar rats = experiment: Craving model: within session extinction and reinstatement paradigm in rats self-administering cocaine; type: in vivo, Rattus norvegicus
Protocol: The study was performed in male Wistar rats (Rattus norvegicus) (the number is given above the columns in the figures) each weighing 180 to 210 g at the beginning of the experiment. The animals used in this experiment were maintained on a 12-hour dark-light cycle under controlled conditions at temperature 22 to 24° C., individually housed in standard cages with free excess to food and water.
In the tests the following active substances were used: • Cocaine hydrochloride • Bromocriptine mesylate • LEK-8829 (9,10-didehydro-N-methyl-N-(2-propynyl)-6-methyl-8β-aminometylergoline bimaleate) Operant Cage for Self-Injecting
The rats were trained and tested in standard operant test chambers (Coulbourn Instruments, Allentown, Pa., USA). Test chambers were built in a modular form and placed in sound-attenuated cubicles. Each was equipped with a ventilating fan that also served as sound source to mask external sound. Chambers were equipped with bulbs emitting white lights. Each chamber contained two nose-poke operanda mounted in 2 cm from the floor and 10 cm apart on the same wall. […] The cocaine solution was administered via the catheter. The latter connected the rat to a syringe ([…] (RAZEL, model A, 10 rpm), installed outside the cage. Time schedule of the experiments and data acquisition were controlled by a computer operated by a software package (Graphic State Notation 2 2.002-00; Coulbourn Instruments, Allentown, Pa., USA).
Each rat was anesthetized with the anaesthetic mixture (ketamine 60 mg/kg and xylazine 8 mg/kg) and implanted with an indwelling jugular catheter. […]
The rats were trained in self-injection of cocaine in daily, 2-hour self-administration sessions during their light cycle, every day except on Saturdays and Sundays. […] Each activation of the active opening was followed by a 30-second period of inactivation (time-out period when the light in the cage was switched off and activation of the active opening was only recorded but without any consequences). […]

mice [1] = experiment: Inhibition of increased locomotor activity produced by cocaine injection; type: in vivo
Protocol: In the experiments in eight mice, intraperitoneal injection of LEK-8829 (in the form of bimaleate salt) inhibited the increased locomotor activity produced by intraperitoneal cocaine injection of 20 mg/kg.

mice [2] = experiment: Inhibition of spontaneous locomotor activity; type: in vivo; conditions: Mus musculus, ip, LEK-8829 bimaleate i.p.
rats [3] = experiment: Drug discrimination study (cocaine 10 mg/kg) in rats; type: in vivo
Text: (§1) According to the data from literature, it is well known that rodents and primates are capable to discriminate most psychostimulants abused by humans. Therefore, a model of the specific drug discrimination in experimental animals is a suitable method for the assessment of new active substances in case of the abuse of psychostimulants.

Rhesus monkeys [4] = experiment: Drug discrimination study (cocaine 0.4 mg/kg vs physiological saline) in Rhesus monkeys; type: in vivo; conditions: four Rhesus monkeys; doses 0.032 to 0.32 mg/kg; trained on cocaine 0.4 mg/kg vs saline
Text: as §1

rats [5] = experiment: Cocaine self-administration model in rats, saccharin as comparative stimulant; type: in vivo; conditions: for ED50: Rattus norvegicus, rats
Protocol: The action of the active substance LEK-8829 (in the form of bimaleate salt) at doses ranging from 0.25 to 2.5 mg/kg on sensations of pleasure induced by cocaine self-administration was assessed as the effect on the rate of cocaine self-administration in the experiments in five rats. For determination of the specificity of the effect on cocaine, a solution of saccharin was used as a comparative stimulant. […] In the range of medium doses, LEK-8829 caused an increase in overall input of cocaine self-administration in three animals.

Rhesus monkeys [6] = experiment: Cocaine self-administration versus food intake in Rhesus monkeys; type: in vivo
Protocol: The effect of LEK-8829 (in the form of bimaleate salt) at doses of 0.032 to 0.32 mg/kg intramuscularly on cocaine self-administration in comparison with the effect on food intake (specificity of the effect on feelings of pleasure induced by cocaine, in comparison with non-specific sedative effect) was also tested in four Rhesus monkeys.

D2 receptors = conditions: previous studies (Zivin et al 1996, 1998; Sprah et al 1999); cited from earlier work
D1 receptors = D1 receptors (Rattus norvegicus, UniProt P18901); conditions: previous studies (Zivin et al 1996, 1998; Sprah et al 1999); cited from earlier work
Chain of D1 receptors (P18901 whole entry): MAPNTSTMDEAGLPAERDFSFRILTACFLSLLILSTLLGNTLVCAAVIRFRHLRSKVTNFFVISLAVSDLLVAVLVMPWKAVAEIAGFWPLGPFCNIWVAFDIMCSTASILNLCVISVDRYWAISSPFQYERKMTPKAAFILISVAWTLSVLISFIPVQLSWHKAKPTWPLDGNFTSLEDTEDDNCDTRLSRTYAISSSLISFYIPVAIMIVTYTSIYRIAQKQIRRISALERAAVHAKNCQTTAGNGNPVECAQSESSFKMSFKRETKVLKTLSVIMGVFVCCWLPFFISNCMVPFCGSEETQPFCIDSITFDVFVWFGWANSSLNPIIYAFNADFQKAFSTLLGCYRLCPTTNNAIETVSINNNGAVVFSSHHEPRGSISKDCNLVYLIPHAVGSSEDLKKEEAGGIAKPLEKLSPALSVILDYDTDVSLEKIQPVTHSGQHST

CC(C)C[C@H]1C(=O)N2CCC[C@H]2[C@]2(O)O[C@](NC(=O)[C@@H]3C=C4c5cccc6[nH]c(Br)c(c56)C[C@H]4N(C)C3)(C(C)C)C(=O)N12 [Bromocriptine, reference compound]
appetitive behaviour induced by the substance itself (male Wistar rats; bromocriptine 2 mg/kg i.v. before the cocaine injection): induced the appetitive behaviour

C#CCN(C)C[C@@H]1C=C2c3cccc4[nH]cc(c34)C[C@H]2N(C)C1 [LEK-8829, 9,10-didehydro-N-methyl-N-(2-propynyl)-6-methyl-8β-aminomethylergoline]
ID50, inhibition of increased locomotor activity produced by cocaine (mice [1]; eight mice, LEK-8829 bimaleate i.p., cocaine 20 mg/kg i.p.): 1.2 mg/kg
ratio of ED50/ID50 (spontaneous vs cocaine-increased locomotor activity) (mice [1]; mice, selectivity of the effect against cocaine): 1.8
ED50 (mice [2]): 2.1 mg/kg
partial antagonism of cocaine effect (rats [3]; rats, dose 2.5 mg/kg): 56%
replacement of the discriminative stimulating effect of cocaine (rats [3]; six rats, doses 0.25 to 2.5 mg/kg): did not replace the discriminative stimulating effect of cocaine
inhibition of the discriminative stimulating effect of cocaine (rats [3]; six rats, doses 0.5 to 5 mg/kg): partly inhibited the discriminative stimulating effect of cocaine
discriminative stimulating effect of plain LEK-8829 in the sense of cocaine effect (Rhesus monkeys [4]): did not recognize the discriminative stimulating effect
ED50 (rats [5]; non-specific effect, read-out: ED50, blocking effect on the input of saccharin): 2.16 mg/kg
ED50 (rats [5]; read-out: ED50, blocking effect on cocaine self-administration): 0.17 mg/kg
effect on the dose/response curve of cocaine self-administration (rats [5]; five rats, dose range printed 0.2.5 to 1.55 mg/kg, four of five animals): produced a right shift of the curve in the ratio dose/response to cocaine
effect on the curve dose/input of cocaine at the largest dose (Rhesus monkeys [6]; Rhesus monkeys, 0.32 mg/kg i.m.): blocked the effect of cocaine along the entire (ascending and descending) part of the curve
effect on the curve dose/input of cocaine at small and medium doses (Rhesus monkeys [6]; Rhesus monkeys, 0.032 and 0.1 mg/kg i.m.): decreased the ascending part of the curve
effect on food intake (Rhesus monkeys [6]; Rhesus monkeys, 0.032 to 0.32 mg/kg i.m.): only a minor inhibiting effect on food intake
effect on cocaine self-administration (Rhesus monkeys [6]; four Rhesus monkeys, 0.032 to 0.32 mg/kg intramuscularly, dose-dependent): inhibited cocaine self-administration
effect on cocaine-induced self-injecting (activations of the active opening, last half-hour) (male Wistar rats; LEK-8829 i.v. 0.25 and 0.5 mg/kg, 30 minutes before cocaine 2 mg/kg i.v., p<0.05 vs SAL+COC): statistically significantly reduced cocaine-induced self-injecting
effect on relapse triggered by cocaine (activations of the active opening, last hour) (male Wistar rats; i.p. 0.5 to 5 mg/kg, 30 minutes before cocaine 2 mg/kg i.v., p<0.05 vs SAL+COC): statistically significantly reduced a relapse triggered by cocaine
effect on D2 receptors (D2 receptors): antagonistic effects on D2 receptors
effect on D1 receptors (D1 receptors): agonist effects on D1 receptors
